Read-outs that look alike come from different tables or passages of the source.
What was measured:
[1] = target: T1, full length active recombinant SYK enzyme (Homo sapiens, UniProt P43405); experiment: SYK tyrosine phosphorylation activity, LANCE TR-FRET kinase assay; type: biochemical; conditions: 1 nM SYK, 100 μM ATP, 1 hour at room temperature
T1 construct: full length active recombinant SYK enzyme (Millipore, CA); purchased Millipore
In short: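 Full-length active SYK (1 nM) phosphorylates 550 nM biotinylated substrate with 100 μM ATP in Tris pH 7.5, MgCl2, DTT, 3% DMSO, 1 h at room temperature. EDTA stop with Eu-anti-phosphotyrosine/SA-APC TR-FRET detection, 1 h. IC50 by non-linear regression.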

JAK1 = target: T2, JAK1 (Homo sapiens, UniProt P23458); experiment: JAK tyrosine phosphorylation activity, Z'-LYTE FRET kinase assay; type: biochemical; conditions: catalytic domain recombinant kinase, Tyr6 peptide
T2 construct: 5 μl of catalytic domain recombinant Kinase enzyme+Tyr peptide substrate (Invitrogen, CA); purchased Invitrogen
In short: (§1)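 Catalytic-domain recombinant kinases with Tyr6 peptide substrate and ATP, 1% DMSO, reacted 1 h at room temperature, then protease development 1 h. FRET read at ex 400 nm, em 445/520 nm; inhibition from percent substrate phosphorylation versus no-inhibitor control, IC50 by 4-parameter logistic fit.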

JAK2 = target: T3, JAK2 (Homo sapiens, UniProt O60674); experiment: as above; type: biochemical; conditions: catalytic domain recombinant kinase, Tyr6 peptide
T3 construct: 5 μl of catalytic domain recombinant Kinase enzyme+Tyr peptide substrate (Invitrogen, CA); purchased Invitrogen
In short: as §1

JAK3 = target: T4, JAK3 (Homo sapiens, UniProt P52333); experiment: as above; type: biochemical; conditions: catalytic domain recombinant kinase, Tyr6 peptide
T4 construct: 5 μl of catalytic domain recombinant Kinase enzyme+Tyr peptide substrate (Invitrogen, CA); purchased Invitrogen
In short: as §1

[2] = test system: FcεR1 and BCR induced Syk activation; conditions: cited from earlier work
JAK kinases = conditions: cited from earlier work
Src kinsase = conditions: cited from earlier work
[3] = test system: lymphoma cell lines and primary human lymphoma samples; conditions: cited from earlier work
[4] = test system: refractory NHL and chronic lymphocytic leukemia; conditions: phase II; cited from earlier work
[5] = read-out: Syk IC50 % Inhibition

T3 sequence (O60674 849-1124 limits assumed): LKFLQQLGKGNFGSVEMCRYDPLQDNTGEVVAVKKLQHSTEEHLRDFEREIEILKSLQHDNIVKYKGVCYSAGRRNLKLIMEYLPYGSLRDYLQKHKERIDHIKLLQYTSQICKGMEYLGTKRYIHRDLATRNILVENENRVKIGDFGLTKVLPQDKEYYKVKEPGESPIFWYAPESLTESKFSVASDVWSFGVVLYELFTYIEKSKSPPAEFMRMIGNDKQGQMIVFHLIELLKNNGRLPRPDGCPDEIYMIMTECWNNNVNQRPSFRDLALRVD
T4 sequence (P52333 822-1111 limits assumed): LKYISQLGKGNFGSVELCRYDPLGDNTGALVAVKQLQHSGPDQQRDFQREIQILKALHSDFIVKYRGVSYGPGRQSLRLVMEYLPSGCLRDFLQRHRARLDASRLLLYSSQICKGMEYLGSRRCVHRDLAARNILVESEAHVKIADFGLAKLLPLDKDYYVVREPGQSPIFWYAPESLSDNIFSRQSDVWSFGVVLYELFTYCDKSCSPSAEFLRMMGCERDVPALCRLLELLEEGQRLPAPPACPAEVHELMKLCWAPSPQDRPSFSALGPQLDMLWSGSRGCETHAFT
T2 sequence (P23458 875-1153 limits assumed): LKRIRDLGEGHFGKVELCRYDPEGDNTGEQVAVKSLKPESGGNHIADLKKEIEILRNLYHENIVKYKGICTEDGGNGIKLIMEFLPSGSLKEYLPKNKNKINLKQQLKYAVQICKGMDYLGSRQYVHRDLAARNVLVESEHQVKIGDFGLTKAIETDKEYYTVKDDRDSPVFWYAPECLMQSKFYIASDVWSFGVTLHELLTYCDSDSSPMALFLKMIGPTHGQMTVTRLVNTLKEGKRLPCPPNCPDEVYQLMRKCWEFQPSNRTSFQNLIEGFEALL

SMILES: CCS(=O)(=O)N1CCN(c2ccc(Nc3ncc(C(N)=O)c(NC4CC4)n3)nc2)CC1 [Compound 67, 4-(cyclopropylamino)-2-((5-(4-(ethylsulfonyl)piperazin-1-yl)pyridin-2-yl)amino)pyrimidine-5-carboxamide]
- IC50 [1, 5]: > 1000 nM
- JAK1 IC50 potency class (JAK1): ++ (1.0 uM<IC50<0.10 uM)
- JAK2 IC50 potency class (JAK2): ++ (1.0 uM<IC50<0.10 uM)
- JAK3 IC50 potency class (JAK3): ++ (1.0 uM<IC50<0.10 uM)

SMILES: NC(=O)c1cnc(NC2CC2)cc1Nc1ccc(C2CCNCC2)cc1 [Compound 68, 6-(cyclopropylamino)-4-((4-(piperidin-4-yl)phenyl)amino)nicotinamide]
- IC50 [1, 5]: > 1000 nM
- IC50 (JAK1; read-out: JAK1 IC50 % Inhibition): > 1000 nM
- IC50 (JAK2; read-out: JAK2 IC50 % Inhibition): > 1000 nM
- IC50 (JAK3; read-out: JAK3 IC50 % Inhibition): > 1000 nM

SMILES: CS(=O)(=O)N1CCN(c2ccc(Nc3ncc(C(N)=O)c(NC4CC4)n3)cc2Cl)CC1 [Compound 69, 2-((3-chloro-4-(4-(methylsulfonyl)piperazin-1-yl)phenyl)amino)-4-(cyclopropylamino)pyrimidine-5-carboxamide]
- IC50 [1]: +++ (0.10 uM<IC50<0.01 uM)
- JAK1 IC50 potency class (JAK1): +++ (0.10 uM<IC50<0.01 uM)
- JAK2 IC50 potency class (JAK2): ++++ (0.01 uM<IC50<0.001 uM)
- JAK3 IC50 potency class (JAK3): ++++ (0.01 uM<IC50<0.001 uM)

SMILES: COc1cc(Nc2ncc(F)c(Nc3ccc4c(n3)NC(=O)C(C)(C)O4)n2)cc(OC)c1OC [Compound R406]
- inhibition of ITAM signaling [2]: inhibit ITAM signaling
- activity against JAK kinases (JAK kinases): active
- activity against Src kinase (Src kinsase): not against
- effect on BCR signaling ([3]; lymphoma cell lines and primary human lymphoma samples): attenuates BCR signaling
- apoptosis ([3]; lymphoma cell lines): resulting in apoptosis
- clinical trial outcome [4]: favorable results
